Assay results taken from paper PMC5862576, “Mitochondrial fission as a driver of stemness in tumor cells: mDIVI1 inhibits mitochondrial function, cell migration and cancer stem cell (CSC) signalling” (Oncotarget, 2018).

Test system: MCF7 cells
Test: Label-free semi-quantitative proteomics
Format: cell-based, Human
Conditions: 10 µM, 48 hours vs vehicle
Procedure: HPLC gradient grade acetonitrile was obtained from Fisher Scientific. Briefly, 2 × 10^6 MCF7 cells were seeded in 15 cm plates until cells were attached. […] As control, vehicle-treated cells were processed in parallel. After 48 hours of treatment, cells were lysed in RIPA buffer (R0278, Sigma) and kept at 4° C for 20 minutes with rotation. Lysates were cleared by centrifugation for 10 minutes at 10,000 × g and supernatants were collected and kept frozen at −80° C. Lysate samples were thawed to room temperature and their concentrations equalised to 1 µg/µL (50 µL volume) with RIPA buffer, and further processed for trypsin digestion by sequential reduction of disulphide bonds with TCEP and alkylation with MMTS. Briefly, 1 µL benzonase (Novagen) was added to the 50 µL aliquot and placed on ice for 15 minutes. The sample was then taken to dryness using a SpeedVac, and resuspended in 22.5 µL trypsin reaction buffer (40 mM ammonium bicarbonate and 9% acetonitrile). One µL of 50 mM TCEP solution was added to each sample, mixed briefly and placed on a heater block at 60° C for 60 minutes. After cooling to room temperature, 0.5 µL of 200 mM MMTS solution was added to each sample and allowed to react for 15 minutes. Trypsin was added in two waves to ensure efficient digestion of the sample. Firstly, 20 µg of sequencing grade trypsin was resuspended in 1800 µL of trypsin reaction buffer; 225 µL of this solution were added to each sample for digestion, and the reactions were left at 37° C overnight with shaking (600 rpm). The following morning, a further aliquot of trypsin was added. Two ml of trypsin reaction buffer was added to […] of sequencing grade trypsin; 250 µL of this solution were added to each of the digest samples from overnight, and the reactions were left at 37° C for 4 hours with shaking (600 rpm). […] The digested solution was diluted in 7.5 mL of acetonitrile containing 0.3% formic acid. PolyhydroxyethylA SPE 12 µm, 300A, 300mg cartridges (obtained from PolyLC) were used for the HILIC procedure. Prior to use, cartridges required an overnight soak in 50 mM formic acid followed by rinsing with water the following day. […] The diluted samples were loaded onto the cartridges and washed with a further 10 mL Buffer A. Finally, peptides were eluted in 1 mL Buffer C (9 parts Buffer B plus 1 part Buffer A) and the samples dried on a Speedvac to remove organic solvent prior to LC-MS/MS analysis. Lyophilised digests were resuspended in 50 µL of 0.1% TFA to give an approximate concentration of 1 µg/µL. One µL injection volumes were used throughout resulting in an on-column peptide loading of approximately 1 µg per injection. Analysis was performed in quintuplicate for each sample. All LC-MS/MS analyses were performed on an LTQ Orbitrap XL mass spectrometer coupled to an Ultimate 3000 RSLCnano system (Thermo Scientific). One µL injection volumes were used throughout and samples loaded directly onto the analytical column, PepMap RSLC C18, 2 µm × 75 µm id × 50 cm (Thermo Scientific). The composition (v/v) of LC buffers were as follows; […] Peptides were loaded directly onto the column at a flow rate of 400 nl/min with an initial mobile phase composition of 1% B. […] The column was then allowed to re-equilibrate to 1% B for a total analysis time of 74 minutes. The mass spectrometer was instructed to perform data dependent acquisition on the top six precursor ions, which were measured in the Orbitrap FTMS detector over the mass range 370–1200 m/z, at a nominal resolution of 60,000. […] Gas-phase fractionation was performed on the five replicate injections such that MS/MS data was collected for precursor ion range 370–494 m/z Injection 1, 494–595 m/z Injection 2, 595–685 m/z Injection 3, 685–817 m/z Injection 4 and 817–1200 m/z Injection 5. Xcalibur raw data files acquired on the LTQ-Orbitrap XL were directly imported into Progenesis LCMS software (Waters Corp) for peak detection and alignment. Data were analysed using the Mascot search engine. […]

COc1cc(-n2c(=S)[nH]c3ccccc3c2=O)c(Cl)cc1Cl [mDIVI1, 3-(2,4-Dichloro-5-methoxyphenyl) 2,3-dihydro 2-thioxo-4(1H) quinazolinone]
BMP7 expression change (proteomics): -47.17 | CELSR2 expression change (proteomics): −1.6 | EPCAM expression change (proteomics): −1.58 | EphA2 expression change (proteomics): -1.74 | F11 receptor expression change (proteomics): −1.70 | LAMP1 upregulation (proteomics): 2.83 | STAT3 expression change (proteomics): -1.83 | ZO-1 expression change (proteomics): −1.62 | collagen type IV upregulation (proteomics): 1.9 fold | desmoplakin expression change (proteomics): −4.58 | junction plakoglobin expression change (proteomics): −1.65 | keratin 8 expression change (proteomics): −5.24 | keratin 18 expression change (proteomics): −12.21 | Hexokinase 1 (HK1) change in expression (Glycolysis): ↓Infinite
